Columns and labels:
Test in all cases: Thermal shift binding assay
[1] = system: RNA3WJ_1.0.0_5IB_3FAM (cis 3WJ with one unpaired nucleotide); details: RNA3WJ_1.0.0_5IB_3FAM; for Melting temp [° C.] + cmpd / Temp. Shift [° C.]: 1 μM RNA, 8 μM compound, 1% DMSO, 10 mM CacoK pH 7.2, 30 mM NaCl
From the text: (§1) Purpose: Test binding of compounds for RNA three way junction (for example, a construct of 38 nt). Thermal shift assay based on established fluorescence quenching assay utilizing FAM as fluorescence tag and Iowa Black as quencher. Tags were attached at the 3′ and 5′ end, respectively. Stable formation of 3WJ upon compound binding would lead to quenching of the FAM fluorescence due to close proximity of the Iowa Black tag. Thermal unfolding leads to increase of fluorescence emission. Assay readout: FAM (465-510 nm) Thermal Shift.
(§2) Assay sample buffer used: 10 mM CacoK pH 7.2, 30 mM NaCl. Buffer preparation in Dnase/Rnase Free distilled water (Gibco Life Technologies).
(§3) Tool compounds provided as dry powder are prepared as 50 mM stock solution in 100% d6-DMSO. Stock solutions of 50 mM concentration in d6-DMSO are stored at RT.
(§4) Sample plate: Roche, Light Cycler480 Multiwell Plate96, white, REF 04729692001. (Dilution plate: Greiner REF 781101, PS-Microplate, 384 well, clear). Thermal Shift device: Roche, Light Cycler480.
(§5) Daily fresh (10 ml): 1 ml 100 mM CacoK pH 7.2 and 0.3 ml 1 M NaCl filled up to 10 ml with Dnase/Rnase Free distilled water.
(§6) Dilute the RNA 1:10 (final 10 μM) in Assay Buffer.
(§7) Heat up the diluted RNA up to 90° C. for 5 min (sealed Eppendorf Tube).
(§8) Cool down the RNA probe slowly to RT.
(§9) Dilute the compounds to 800 μM in DMSO (Assay: 8 μM).
(§10) 78.4 μL Assay Buffer are pipetted into Greiner REF 781101, PS-Microplate, 384 (each well needed).
(§11) Add 0.8 μL of the RNA-Solution ([…]).
(§12) Add 0.8 μL Compound-Solution ([…]).
(§13) Final concentrations in the sample: 1 μM RNA, 8 μM compound, 1% DMSO
(§14) Pipet 20 μL Sample Solution into Roche, Light Cycler480 Multiwell Plate96, white, REF 04729692001.
(§15) When sample transfer is finished, seal the plate with a clear topseal (part of REF 04729692001).
(§16) Centrifuge the plate with a table-top device to spin down the samples.
(§17) Measure the 96 plate with the LightCycler480 (Channel: 480/510 nm; Temperature: 41-91° C.).
(§18) Analyse measurement-data with the MeltingCurveGenotyping Mode.
(§19) Settings: Acquisition mode: continuous; Ramp rate: 0.1 C.°/sec; Acquisition: 6/C.° Melt Curve Genotyping for All Samples
(§20) Melting curves analysis show melting temperature (Tm) of ˜51° C. Range of RNA concentrations was tested and assay window was determined (conc. range of 0.5-1 μM yields best results). The choice of buffer also affected the Tm. RNA constructs were tested under different buffer conditions (especially in presence of salt) in the thermal shift assay. […] CacoK with 30 mM salt at 1 μM RNA conc. was used to assess compound effects on 3WJ stability. […] These conditions were used for screening test compounds.
(§21) Compounds Ark0000013 and Ark0000014 were also tested in the thermal shift assay against three RNA 3WJ constructs, A) RNA3WJ_1.0.0_5IB_3FAM (cis 3WJ with one unpaired nucleotide); B) Split3WJ.1_up_5IB+Split3WJ.1_down_3FAM (trans 3WJ as 1:1 mix); and C) Split3WJ.2_up_5IB+Split3WJ.2_down_3FAM (trans 3WJ as 1:1 mix).

[2] = system: Split3WJ.1_up_5IB+Split3WJ.1_down_3FAM (trans 3WJ as 1:1 mix; Split3WJ_1); details: Split3WJ_1 (trans 3WJ), 1 μM RNA, 8 μM compound
From the text: as §1, §2, §3, §4, §5, §6, §7, §8, §9, §10, §11, §12, §13, §14, §15, §16, §17, §18, §19, §20, §21

[3] = system: Split3WJ.2_up_5IB+Split3WJ.2_down_3FAM (trans 3WJ as 1:1 mix; Split3WJ_2); details: Split3WJ_2 (trans 3WJ), 1 μM RNA, 8 μM compound
From the text: as §1, §2, §3, §4, §5, §6, §7, §8, §9, §10, §11, §12, §13, §14, §15, §16, §17, §18, §19, §20, §21

| Melting temp [° C.] + cmpd [1] [°C] | Temp. Shift [° C.] [1] [°C] | Effect in the melting curves (in words) ([1]; FIG. 111, listed as Ark000013) | Melting temp [° C.] + cmpd [2] [°C] | Temp. Shift [° C.] [2] [°C] | Temp. Shift [° C.] ([2]; listed as Ark000013) [°C] | Melting temp [° C.] + cmpd [3] [°C] | Temp. Shift [° C.] [3] [°C] | Temp. Shift [° C.] ([3]; listed as Ark000013) [°C] | Melting temp [° C.] + cmpd ([1]; listed as Ark000014) [°C] | Temp. Shift [° C.] ([1]; listed as Ark000014) [°C] | Melting temp [° C.] + cmpd ([2]; listed as Ark000014) [°C] | Temp. Shift [° C.] ([2]; listed as Ark000014) [°C] | Melting temp [° C.] + cmpd ([3]; listed as Ark000014) [°C] | Temp. Shift [° C.] ([3]; listed as Ark000014) [°C] | Structure (SMILES) |
| --- | --- | --- | --- | --- | --- | --- | --- | --- | --- | --- | --- | --- | --- | --- | --- |
| 87.0 | 21.4 | significant effect | 58.2 | 20.4 | ~21 | 56.9 | 12.2 | ~13 |  |  |  |  |  |  | CN(CCCN)CCCNC(=O)c1ccc2c(c1)C1c3cc(C(=O)NCCCN(C)CCCN)ccc3C2c2ccc(C(=O)NCCCN(C)CCCN)cc21 [Ark0000013, N^2,N^7,N^15-tris(3-((3-aminopropyl)(methyl)amino)propyl)-9,10-dihydro-9,10-[1,2]benzenoanthracene-2,7,15-tricarboxamide] |
| 68.1 | 2.5 |  | 37.8 | 0.3 |  | 44.0 | −0.3 |  | 68.4 | ~3 | 38.8 | ~1 | 44.7 | ~1 | NCCCCCCCNC(=O)c1ccc2c(c1)C1c3cc(C(=O)NCCCCCCCN)ccc3C2c2ccc(C(=O)NCCCCCCCN)cc21 [Ark0000014, N^2,N^7,N^15-tris(7-aminoheptyl)-9,10-dihydro-9,10-[1,2]benzenoanthracene-2,7,15-tricarboxamide] |

Reference: US20220281860A1, “COMPOUNDS AND METHODS OF TREATING RNA-MEDIATED DISEASES” (Arrakis Therapeutics, Inc., priority 2016, published 2022)
